From patent US9051307B2, “Bipyridyl derivatives” (Merck Patent GmbH, priority 2010, dated 2015)

These compounds were tested against T1, GST-ALK5 (Homo sapiens, UniProt P36897) (assay: In-vitro (enzyme) kinase assay, 384-well flashplate, GST-ALK5 with GST-SMAD2 and 33P-ATP (Example 16)). Settings: 31.2 nM GST-ALK5, 439 nM GST-SMAD2, 3 mM ATP, 30° C., 45 min; IC50 classes; read-out: TβR activity (Example 16).
T1 sequence (P36897 34-503): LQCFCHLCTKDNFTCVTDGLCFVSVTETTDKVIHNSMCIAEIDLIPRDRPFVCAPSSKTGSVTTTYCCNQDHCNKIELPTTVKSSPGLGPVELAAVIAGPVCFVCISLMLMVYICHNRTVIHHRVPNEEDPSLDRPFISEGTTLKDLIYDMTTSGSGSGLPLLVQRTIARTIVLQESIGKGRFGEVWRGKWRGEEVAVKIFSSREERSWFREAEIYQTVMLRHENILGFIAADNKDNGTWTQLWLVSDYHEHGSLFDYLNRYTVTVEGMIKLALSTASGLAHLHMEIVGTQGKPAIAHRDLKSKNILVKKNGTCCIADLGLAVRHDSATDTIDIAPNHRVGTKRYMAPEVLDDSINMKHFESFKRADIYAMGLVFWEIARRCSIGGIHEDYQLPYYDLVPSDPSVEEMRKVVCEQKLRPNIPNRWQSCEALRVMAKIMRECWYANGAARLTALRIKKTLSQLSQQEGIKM
Format: biochemical
Description: In-vitro (Enzyme) Assay for Determination of the Efficacy of Inhibitors of the Inhibition of TGF-Beta-mediated Effects
The kinase assay was carried out as 384-well flashplate assay. 31.2 nM of GST-ALK5, 439 nM of GST-SMAD2 and 3 mM of ATP (with 0.3 μCi of ^33P-ATP/well) were incubated in a total volume of 35 μl (20 mM of HEPES, 10 mM of MgCl2, 5 mM of MnCl2, 1 mM of DTT, 0.1% of BSA, pH 7.4) without or with test substance (5-10 concentrations) at 30° C. for 45 min. The reaction was stopped using 25 μl of 200 mM EDTA solution, filtered with suction at room temperature after 30 min, and the wells were washed with 3 times 100 μl of 0.9% NaCl solution. Radioactivity was measured in the TopCount. The IC50 values were calculated using RS1.

`Fc1ccc(Cl)cc1-c1cc(-c2cncc(-c3cnn(C4CCNCC4)c3)c2)ccn1` [Compound 18, 2′-(5-Chloro-2-fluoro-phenyl)-5-(1-piperidin-4-yl-1H-pyrazol-4-yl)-[3,4′]bipyridinyl] and `Fc1ccccc1-c1cc(-c2cncc(-c3cnn(C4CCNCC4)c3)c2)ccn1` [Compound 27, 2′-(2-Fluoro-phenyl)-5-(1-piperidin-4-yl-1H-pyrazol-4-yl)-[3,4′]bipyridinyl] cannot be ordered by IC50: less than 1000 nM for the first, less than 1000 nM for the second.

`OCCn1cc(-c2cncc(-c3ccnc(-c4ccccc4F)c3)n2)cn1` [Compound 20, 2-(4-{6-[2-(2-Fluoro-phenyl)-pyridin-4-yl]-pyrazin-2-yl}-pyrazol-1-yl)-ethanol] and `OCCn1cc(-c2cncc(-c3ccnc(-c4ccccc4F)c3)c2)cn1` [Compound 33, 2-{4-[2′-(2-Fluoro-phenyl)-[3,4′]bipyridinyl-5-yl]-pyrazol-1-yl}-ethanol] cannot be ordered by IC50: less than 1000 nM for the first, less than 1000 nM for the second.

`Fc1ccccc1-c1cc(-c2cncc(-c3cnn(CCCN4CCOCC4)c3)c2)ccn1` [Compound 21, 2′-(2-Fluoro-phenyl)-5-[1-(3-morpholin-4-yl-propyl)-1H-pyrazol-4-yl]-[3,4′]bipyridinyl] and `CN1CCN(CCCn2cc(-c3cncc(-c4ccnc(-c5ccccc5F)c4)c3)cn2)CC1` [Compound 23, 2′-(2-Fluoro-phenyl)-5-{1-[3-(4-methyl-piperazin-1-yl)-propyl]-1H-pyrazol-4-yl}-[3,4′]bipyridinyl] cannot be ordered by IC50: less than 1000 nM for the first, less than 1000 nM for the second.

`OCCCn1cc(-c2cncc(-c3ccnc(-c4ccccc4F)c3)c2)cn1` [Compound 22, 3-{4-[2′-(2-Fluoro-phenyl)-[3,4′]bipyridinyl-5-yl]-pyrazol-1-yl}-propan-1-ol] and `CN(C)CCCn1cc(-c2cncc(-c3ccnc(-c4ccccc4F)c3)c2)cn1` [Compound 29, (3-{4-[2′-(2-Fluoro-phenyl)-[3,4′]bipyridinyl-5-yl]-pyrazol-1-yl}-propyl)-dimethyl-amine] cannot be ordered by IC50: less than 1000 nM for the first, less than 1000 nM for the second.

`CN1CCC(n2cc(-c3cncc(-c4ccnc(-c5ccccc5F)c4)c3)cn2)CC1` [Compound 24, 2′-(2-Fluoro-phenyl)-5-[1-(1-methyl-piperidin-4-yl)-1H-pyrazol-4-yl]-[3,4′]bipyridinyl] and `CN1CCC(n2cc(-c3cncc(-c4ccnc(-c5cc(F)ccc5F)c4)c3)cn2)CC1` [Compound 35, 2′-(2,5-Difluoro-phenyl)-5-[1-(1-methyl-piperidin-4-yl)-1H-pyrazol-4-yl]-[3,4′]bipyridinyl] cannot be ordered by IC50: less than 1000 nM for the first, less than 1000 nM for the second.

`CN1CCN(c2ccc(-c3cncc(-c4ccnc(-c5ccccc5F)c4)c3)cn2)CC1` [Compound 25, 2″-(2-Fluoro-phenyl)-6-(4-methyl-piperazin-1-yl)-[3,3′;5′,4″]terpyridine] and `Fc1ccccc1-c1cc(-c2cncc(-c3ccc(N4CCNCC4)nc3)c2)ccn1` [Compound 26, 2″-(2-Fluoro-phenyl)-6-piperazin-1-yl-[3,3′;5′,4″]terpyridine] cannot be ordered by IC50: less than 1000 nM for the first, less than 1000 nM for the second.

`CN(C)CCCn1cc(-c2cncc(-c3ccnc(-c4cc(F)ccc4F)c3)c2)cn1` [Compound 28, (3-{4-[2′-(2,5-Difluoro-phenyl)-[3,4′]bipyridinyl-5-yl]-pyrazol-1-yl}-propyl)-dimethyl-amine] and `CN(C)CCCn1cc(-c2cncc(-c3ccnc(-c4cc(Cl)ccc4F)c3)c2)cn1` [Compound 30, (3-{4-[2′-(5-Chloro-2-fluoro-phenyl)-[3,4′]bipyridinyl-5-yl]-pyrazol-1-yl}-propyl)-dimethyl-amine] cannot be ordered by IC50: less than 1000 nM for the first, less than 1000 nM for the second.

`OCCn1cc(-c2cncc(-c3ccnc(-c4cc(C(F)(F)F)ccc4F)c3)c2)cn1` [Compound 31, 2-{4-[2′-(2-Fluoro-5-trifluoromethyl-phenyl)-[3,4′]bipyridinyl-5-yl]-pyrazol-1-yl}-ethanol] and `OCCn1cc(-c2cncc(-c3ccnc(-c4cc(F)ccc4F)c3)c2)cn1` [Compound 32, 2-{4-[2′-(2,5-Difluoro-phenyl)-[3,4′]bipyridinyl-5-yl]-pyrazol-1-yl}-ethanol] cannot be ordered by IC50: less than 1000 nM for the first, less than 1000 nM for the second.

`OCCn1cc(-c2cncc(-c3ccnc(-c4cc(Cl)ccc4F)c3)c2)cn1` [Compound 34, 2-{4-[2′-(5-Chloro-2-fluoro-phenyl)-[3,4′]bipyridinyl-5-yl]-pyrazol-1-yl}-ethanol] and `CN1CCC(n2cc(-c3cncc(-c4ccnc(-c5cc(Cl)ccc5F)c4)c3)cn2)CC1` [Compound 37, 2′-(5-Chloro-2-fluoro-phenyl)-5-[1-(1-methyl-piperidin-4-yl)-1H-pyrazol-4-yl]-[3,4′]bipyridinyl] cannot be ordered by IC50: less than 1000 nM for the first, less than 1000 nM for the second.

First: CN1CCC(n2cc(-c3cncc(-c4ccnc(-c5cc(C(F)(F)F)ccc5F)c4)c3)cn2)CC1 [Compound 36, 2′-(2-Fluoro-5-trifluoromethyl-phenyl)-5-[1-(1-methyl-piperidin-4-yl)-1H-pyrazol-4-yl]-[3,4′]bipyridinyl]
Second: Fc1ccccc1-c1cc(-c2cncc(-c3cnc4[nH]c(C(F)(F)F)cc4c3)c2)ccn1 [Compound 42, 2′-(2-Fluoro-phenyl)-5-(2-trifluoromethyl-1H-pyrrolo[2,3-b]pyridin-5-yl)-[3,4′]bipyridinyl]
The IC50 of the first is lower: less than 1000 nM for the first, 1000 to 10000 nM for the second. The first is the more potent here.

`Fc1ccccc1-c1cc(-c2cncc(-c3cnc4ccccc4c3)c2)ccn1` [Compound 39, 2′-(2-Fluoro-phenyl)-5-quinolin-3-yl-[3,4′]bipyridinyl] and `COc1ccc(Nc2cncc(-c3ccnc(-c4ccccc4F)c3)c2)cn1` [Compound 44, [2′-(2-Fluoro-phenyl)-[3,4′]bipyridinyl-5-yl]-(6-methoxy-pyridin-3-yl)-amine] fall in the same range of IC50: 1000 to 10000 nM for the first, 1000 to 10000 nM for the second.

First: Fc1ccccc1-c1cc(-c2cncc(-n3cccn3)c2)ccn1 [Compound 41, 2′-(2-Fluoro-phenyl)-5-pyrazol-1-yl-[3,4′]bipyridinyl]
Second: CCOc1cc(Nc2cncc(-c3ccnc(-c4ccccc4F)c3)c2)ccn1 [Compound 43, (2-Ethoxy-pyridin-4-yl)-[2′-(2-fluoro-phenyl)-[3,4′]bipyridinyl-5-yl]-amine]
The IC50 of the first is lower: less than 1000 nM for the first, 1000 to 10000 nM for the second.

With `CCOCc1cnc(C)nc1Nc1cncc(-c2ccnc(-c3ccccc3F)c2)c1` [Compound 45, (5-Ethoxymethyl-2-methyl-pyrimidin-4-yl)-[2′-(2-fluoro-phenyl)-[3,4′]bipyridinyl-5-yl]-amine] the IC50 was 1000 to 10000 nM.
